Results as given in patent US8114904B2, “Luminescence quenchers and fluorogenic probes for detection of reactive species” (Versitech Limited & Morningside Ventures Limited, priority 2008, dated 2012).

Tests used:
[1] = Comparison of specificity with different ROS and RNS; conditions: for fluorescence enhancement by peroxynitrite compared with any other ROS and RNS: 25° C.
Description: The reactivity of Compound 10 was compared toward different reactive oxygen species (ROS) and reactive nitrogen species (RNS), including OCl^−, H2O2, ^1O2, NO, O2^•−, ^•OH, ONOO^− and alkylperoxyl radical (ROO^•). Different reactive oxygen species and reactive nitrogen species were added independently to 5 mL of the solution of Compound 10 (10 μM in 0.1 M potassium phosphate buffer). The changes of fluorescence intensity before and after the treatment were measured. The reactive oxygen species and reactive nitrogen species were prepared as follows. • a. H2O2 (final 100 μM) was added and then stirred for 1 hour at 25° C. • b. (3-(1,4-Dihydro-1,4-epidioxy-1-naphthyl)propionic acid) (final 100 μM) was added and then stirred at 25° C. for 1 hour. • c. 2,2′-Azobis(2-amidinopropane)dihydrochloride (final 100 μM) was added and then stirred at 25° C. for 1 hour. • d. SNP (Sodium Nitroferricyanide (III) Dihydrate) (final 100 μM) was added and then stirred for 1 hour at 25° C. • e. O2^•− was generated by xanthine and xanthine oxidase. Xanthine oxidase was added firstly. After xanthine oxidase was dissolved, xanthine (final 100 μM) was added and the mixtures were stirred at 25° C. for 1 hour. • f. Ferrous chloride (final 10 μM) was added in the presence of 10 equivalences of H2O2 (100 μM). • g. ONOO^− (final 10 μM) was added at 25° C. • h. NaOCl (final 10 μM) was added at 25° C. Commercial bleach was the source of NaOCl.
The reactivity of Compound 12 was compared toward different reactive oxygen species (ROS) and reactive nitrogen species (RNS), including OCl^−, H2O2, ^1O2, NO, O2^•−, ^•OH, ONOO^− and alkylperoxyl radical (ROO^•). Different reactive oxygen species and reactive nitrogen species were added independently to 5 mL of the solution of Compound 12 (1 μM in 0.1 M potassium phosphate buffer). The changes of fluorescence intensity before and after the treatment were measured. The reactive oxygen species and reactive nitrogen species were prepared as follows: • i. H2O2 (final 100 μM) was added and then stirred for 1 hour at 25° C. • j. (3-(1,4-Dihydro-1,4-epidioxy-1-naphthyl)propionic acid) (final 100 μM) was added and then stirred at 25° C. for 1 hour. • k. 2,2′-Azobis(2-amidinopropane)dihydrochloride (final 100 μM) was added and then stirred at 25° C. for 1 hour. • l. SNP (Sodium Nitroferricyanide (III) Dihydrate) (final 100 μM) was added and then stirred for 1 hour at 25° C. • m. O2^•− was generated by xanthine and xanthine oxidase. Xanthine oxidase was added firstly. After xanthine oxidase was dissolved, xanthine (final 100 μM) was added and the mixtures were stirred at 25° C. for 1 hour. • n. Ferrous chloride (final 10 μM) was added in the presence of 10 equivalences of H2O2 (100 μM). • o. ONOO^− (final 10 μM) was added at 25° C. • p. NaOCl (final 10 μM) was added at 25° C. Commercial bleach was the source of NaOCl.
The reactivity of Compound 14 was compared toward different reactive oxygen species (ROS) and reactive nitrogen species (RNS), including OCl^−, H2O2, ^1O2, NO, O2^•−, ^•OH, ONOO^− and alkylperoxyl radical (ROO^•). Different reactive oxygen species and reactive nitrogen species were added independently to 5 mL of the corresponding solution of Compound 14 (1 μM in 0.1 M potassium phosphate buffer). The changes in fluorescence intensity before and after the treatment were measured. The reactive oxygen species and reactive nitrogen species were prepared as follows: • a. H2O2 (final 100 μM) was added and then stirred for 1 hour at 25° C. • b. (3-(1,4-Dihydro-1,4-epidioxy-1-naphthyl)propionic acid) (final 100 μM) was added and then stirred at 25° C. for 1 hour. • c. 2,2′-Azobis(2-amidinopropane)dihydrochloride (final 100 μM) was added and then stirred at 25° C. for 1 hour. • d. SNP (Sodium Nitroferricyanide (III) Dihydrate) (final 100 μM) was added and then stirred for 1 hour at 25° C. • e. O2^•− was generated by xanthine and xanthine oxidase. Xanthine oxidase was added firstly. […]

[2] = UV-visible absorption spectrum; type: physicochemical; conditions: pH 7.4 0.1 M phosphate buffer, 0.1% DMF
Description: Compound 10 obtained in Example 4 was dissolved in pH 7.4 0.1 M phosphate buffer containing 0.1% DMF as cosolvent to form a 10 μM solution.
Compound 12 obtained in Example 5 was dissolved in pH 7.4 0.1 M phosphate buffer containing 0.1% DMF as cosolvent to form a 1 μM solution.
Compound 14 obtained in Example 6 was dissolved in pH 7.4 0.1 M phosphate buffer containing 0.1% DMF as cosolvent to form a 1 μM solution.
Compound 30 obtained in Example 7 was dissolved in pH 7.4 0.1 M phosphate buffer containing 0.1% DMF as cosolvent to form a 10 μM solution. The absorption spectrum of the 10 μM solution of Compound 30 was measured.

[3] = system: Murine J744.1 macrophages; assay: Cell assay: detection of peroxynitrite in living cells by fluorescent microscopy; type: cell-based
Description: (§1) Murine J744.1 macrophages (ATCC, USA) were used to investigate the potential of Compound 22 (acetate form of Compound 10) for the detection of peroxynitrite in living cells. J744.1 macrophages were cultured in Dulbecco's Modified Eagle's Medium (DMEM) (Gibco) containing 10% heat-inactivated fetal bovine serum (Gibco) supplemented with 100 U/ml of penicillin and 100 μg/ml streptomycin at 37° C., 5% CO2. They were subcultured by scraping and seeded on six-well plates according to manufacture's instruction. The growth medium was changed every two to three days. Cells were grown to confluence prior to experiment. Murine J744.1 macrophages were incubated with Compound 22 (20 μM) for 1 hr and then washed three times with PBS buffer.
as §1, with “12 and 12a” for “22 (acetate form of Compound 10)”, “12 or 12a” for “22”, “buffer. […] The fluorescence was induced after treatment with LPS (lipopolysaccharide, 1 μg/ml) for 4 hrs (FIG. 9D and FIG. 10B).” for “buffer.”

[4] = 10 μM probe in 0.1 M potassium phosphate buffer
[5] = 1 μM probe in 0.1 M potassium phosphate buffer

Row | SMILES | reactivity among ROS and RNS in an abiotic system [1, 4] | fluorescence enhancement by peroxynitrite compared with any other ROS and RNS [1, 4] | absorption maximum ([2]; 10 μM solution) | fluorescence after treatment with LPS ([3]; 20 μM probe 1 hr, LPS 1 μg/ml for 4 hrs) | subcellular localization ([3]; J744.1 macrophages) | fluorescence observed in the absence of stimulants ([3]; J744.1 macrophages incubated with 20 μM probe for 1 hr) | colocalization with mitochondrial dye MitoTracker Red CMXRos ([3]; LPS-stimulated J744.1 macrophages, 20 μM) | reactivity among ROS and RNS in an abiotic system [1, 5] | fluorescence enhancement by peroxynitrite compared with any other ROS and RNS [1, 5] | absorption maximum ([2]; 1 μM solution)
1 | CN(c1ccc(CCC(=O)C(F)(F)F)cc1)c1cc2c(cc1Cl)C1(OC(=O)c3ccccc31)c1cc(Cl)c(O)cc1O2 (stereo not shown) [Compound 10] | much higher reactivity towards peroxynitrite | much stronger fluorescence enhancement | about 520 nm | – | – | – | – | – | – | –
2 | CN(c1ccc(O)cc1)c1ccc2c(c1)Oc1cc(O)ccc1C21OC(=O)c2ccccc21 (stereo not shown) [Compound 12] | – | – | – | induced | may selectively localize in mitochondrials | very weak fluorescence | colocalized | much higher reactivity towards peroxynitrite | much stronger fluorescence enhancement | about 515 nm
